Experimental findings from patent US10100050B2 (CHIESI FARMACEUTICI S.P.A., priority 2015, dated 2018) are described below.

pIC50: −log10 of the molar value. Values joined by “and” are separate entries in the source; they are usually repeats but may differ in a detail not shown here. Equal entries are not always repeated. Structures can show the parent of a compound that is named as a salt.

One test deals with T1, p38alpha (Homo sapiens, UniProt Q16539).
T1 construct: purchased Invitrogen PV3304
Briefly: P38alpha enzyme inhibition assay (Alphascreen kinase activity assay). Format: biochemical. As to conditions: IC50 classes; 2 hours preincubation at 25° C., 250 μM ATP; read-out: p38α inhibition. The method, then: P38alpha Enzyme Inhibition Assay
The inhibitory activity of compounds was determined using an Alphascreen® (Perkin Elmer) based kinase activity assay. Kinase reactions consisted of 25 mM HEPES pH 7.5, 10 mM MgCl2, 100 μM Na3VO4, 2 mM DTT, 0.05 mg/ml Tween […] (Invitrogen, PV3304), 1% DMSO and 0.3 μg/ml ATF-2 fusion protein (New England Biolabs, 9224). Compounds were incubated under these conditions for 2 hours, at 25° C., prior to the initiation of the kinase activity by the addition of the 250 μM ATP. Reaction volumes were 20 uL. After 1 hr at 25° C. reactions were stopped by the adding 10 uL of 25 mM HEPES pH 7.5 containing 62.5 mM EDTA, 0.05% Triton X-100, 10% BSA and 0.83 ng/uL anti-phospho-ATF2 antibody (Abcam, ab28812). Detection was performed by measuring luminescence following the addition of Alphascreen Donor beads (Perkin Elmer 6765300) and Protein A Alphascreen Acceptor beads (Perkin Elmer 6760137), both at a final concentration of 20 ug/ml. IC50 values were determined from concentration-response curves.
On the technique in general: Alpha assays give light when donor and acceptor beads are brought close together.

The test system of test [1] is Peripheral Blood Mononuclear Cells (PBMCs). Briefly: LPS-stimulated PBMC TNFα release assay. As to conditions: IC50 classes; human PBMC, LPS 10 ng/ml, 18 h; read-out: LPS-stimulated PBMC TNFα release inhibition. The format is cell-based. The method, then:
1-10 nM ‘+’; • <1 nM ‘++’ LPS-Stimulated PBMC TNFα Release Assay
Peripheral Blood Mononuclear Cells (PBMCs) were isolated from healthy human volunteer blood using a standard density gradient centrifugation technique. Citrated blood was placed onto Histopaque™ and centrifuged. The PBMCs were removed from the density gradient interface and washed in phosphate buffered saline (PBS). The PBMCs were suspended in RPMI 1640 medium (without serum), dispensed into a 96-well plate and incubated at 37° C. for 3 h in a humidified incubator. After incubation, the medium was replaced (with medium containing 1% foetal bovine serum) and the plate incubated at 37° C., for 1 h, in the presence of test compound or the appropriate vehicle. LPS (10 ng/ml), or an appropriate vehicle control, was then added to the cells and the plate returned to the incubator for 18 h. Cell-free supernatants were removed and assayed for TNFα levels using MSD plates on the Sector Imager 6000 (MesoScale).
A dose response curve to each test compound was performed and the effect of compound in each experiment was expressed as a percentage inhibition of the control TNFα release. Dose response curves were plotted and compound potency (IC50) was determined. Compounds were tested in at least three separate experiments.

For another test, the system named is BEAS-2B cells. Briefly: TNFα-stimulated BEAS-2B IL-8 release assay. Format: cell-based. As to conditions: Homo sapiens, IC50 classes, TNF-α 10 ng/ml, 18 h, read-out: TNFα-stimulated BEAS-2B IL-8 release inhibition. The method, then: TNFα-Stimulated BEAS-2B IL-8 Release Assay
Human bronchial epithelial cell line BEAS-2B was purchased from Sigma (St. Louis, Mo.). BEAS-2B cells were cultured in Bronchial Epithelial cell Growth Medium (BEGM), prepared by supplementing Bronchial Epithelial Basal Medium with SingleQuotes™ (Lonza, Switzerland), which contains retinoic acid, epidermal growth factor, epinephrine, transferrin, triiodothyronin, insulin, hydrocortisone, antimicrobial agents, and bovine pituitary extract. In addition, BEGM medium was supplemented with 2 mM glutamine, 100 U penicillin and 100 μg/ml streptomycin (Life Technologies), in an atmosphere of 95% air and 5% CO2 at 37° C.
BEAS-2B were seeded in 48-well plates at the density of 3×10^4 cells per well, grown to approximately 80-90% confluence. Cells were pre-incubated with p38 inhibitors for 1 hour and then stimulated with TNF-α (10 ng/ml) for 18 h at 37° C. with 5% CO2. Subsequently, supernatants were collected and used for measuring IL-8 levels using a paired antibody quantitative ELISA kit purchased from Life Technologies (detection limit: […]). All the treatments were performed at least in quadruplicate.
A concentration-response curve to each test compound was performed and the effect of compound in each experiment was expressed as a percentage inhibition of the control IL-8 release. Compound potency (IC50) was calculated by the analysis of the sigmoidal dose-response curve (variable slope) elaborated by Graph Pad PRISM4 program.

T1 sequence (Q16539 whole entry): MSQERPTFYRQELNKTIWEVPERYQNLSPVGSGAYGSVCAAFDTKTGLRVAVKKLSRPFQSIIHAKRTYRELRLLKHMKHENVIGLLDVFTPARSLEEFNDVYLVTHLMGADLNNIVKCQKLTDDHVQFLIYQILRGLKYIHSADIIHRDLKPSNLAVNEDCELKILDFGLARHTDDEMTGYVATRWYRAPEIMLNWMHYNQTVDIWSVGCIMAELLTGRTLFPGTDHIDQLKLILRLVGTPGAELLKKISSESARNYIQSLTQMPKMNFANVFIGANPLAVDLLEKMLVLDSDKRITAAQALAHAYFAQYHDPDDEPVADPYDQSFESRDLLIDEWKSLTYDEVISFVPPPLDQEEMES

For the compound `CN(CCO)Cc1cc(NC(=O)N[C@H]2CC[C@@H](Oc3ccc4nnc([C@]5(C)CCCN5C)n4c3)c3ccccc32)cc(C(C)(C)C)c1` [Example 67, 1-(3-tert-Butyl-5-{[(2-hydroxy-ethyl)-methyl-amino]-methyl}-phenyl)-3-{(1S,4R)-4-[3-((S)-1,2-dimethyl-pyrrolidin-2-yl)-[1,2,4]triazolo[4,3-a]pyridin-6-yloxy]-1,2,3,4-tetrahydro-naphthalen-1-yl}-urea], the results for the pIC50 (at p38alpha; in test [1]; with BEAS-2B cells) were > 9.00, < 8.30 and 9.00 to 9.52, respectively.
With `CN1CCC[C@@]1(C)c1nnc2ccc(O[C@@H]3CC[C@H](NC(=O)Nc4cc(C(C)(C)C)ccc4CO)c4ccccc43)cn12` [Example 59, 1-(5-tert-Butyl-2-hydroxymethyl-phenyl)-3-{(1S,4R)-4-[3-((S)-1,2-dimethyl-pyrrolidin-2-yl)-[1,2,4]triazolo[4,3-a]pyridin-6-yloxy]-1,2,3,4-tetrahydro-naphthalen-1-yl}-urea], the pIC50 was > 9.00 at p38alpha, > 9.00 in test [1] and > 9.52 in the test on BEAS-2B cells.
Regarding `CC(=O)OCc1cc(NC(=O)N[C@H]2CC[C@@H](Oc3ccc4nnc([C@]5(C)CCCN5C)n4c3)c3ccccc32)cc(C(C)(C)C)c1` [Example 44, Acetic acid 3-tert-butyl-5-(3-{(1S,4R)-4-[3-((S)-1,2-dimethyl-pyrrolidin-2-yl)-[1,2,4]triazolo[4,3-a]pyridin-6-yloxy]-1,2,3,4-tetrahydro-naphthalen-1-yl}-ureido)-benzyl ester], the pIC50 was > 9.00 on p38alpha, > 9.00 in test [1] and > 9.52 with BEAS-2B cells.
For the compound `CN1CCC[C@@]1(C)c1nnc2ccc(O[C@@H]3CC[C@H](NC(=O)Nc4cc(N)cc(C(C)(C)C)c4)c4ccccc43)cn12` [Example 35], the pIC50 at p38alpha was > 9.00; in test [1], 8.30 to 9.00; in the test with BEAS-2B cells it was > 9.52.
Turning to `C[C@H]1CCCCN1c1nnc2ccc(O[C@@H]3CC[C@H](NC(=O)Nc4cc(CN(C)C)cc(C(C)(C)C)c4)c4ccccc43)cn12` [Example 66, 1-(3-tert-Butyl-5-dimethylaminomethyl-phenyl)-3-{(1S,4R)-4-[3-((S)-2-methyl-piperidin-1-yl)-[1,2,4]triazolo[4,3-a]pyridin-6-yloxy]-1,2,3,4-tetrahydro-naphthalen-1-yl}-urea], the values for the pIC50 (at p38alpha; in test [1]; in the test on BEAS-2B cells) were > 9.00, 8.30 to 9.00 and > 9.52, respectively.
For `CN1CCC[C@@]1(C)c1nnc2ccc(O[C@@H]3CC[C@H](NC(=O)Nc4cc(CNS(C)(=O)=O)cc(C(C)(C)C)c4)c4ccccc43)cn12` [Example 45, N-[3-tert-Butyl-5-(3-{(1S,4R)-4-[3-((S)-1,2-dimethyl-pyrrolidin-2-yl)-[1,2,4]triazolo[4,3-a]pyridin-6-yloxy]-1,2,3,4-tetrahydro-naphthalen-1-yl}-ureido)-benzyl]-methanesulfonamide], the pIC50 on p38alpha is > 9.00; in test [1] it was > 9.00; in the test with BEAS-2B cells, > 9.52.
As to `CN1CCCC[C@H]1c1nnc2ccc(O[C@@H]3CC[C@H](NC(=O)Nc4cc(NS(C)(=O)=O)cc(C(C)(C)C)c4)c4ccccc43)cn12` [Example 61, N-[3-tert-Butyl-5-(3-{(1S,4R)-4-[3-((S)-1-methyl-piperidin-2-yl)-[1,2,4]triazolo[4,3-a]pyridin-6-yloxy]-1,2,3,4-tetrahydro-naphthalen-1-yl}-ureido)-phenyl]-methanesulfonamide], the pIC50 on p38alpha was > 9.00; in test [1], 8.30 to 9.00; with BEAS-2B cells it was < 9.00.
As for `COc1c(NC(=O)N[C@H]2CC[C@@H](Oc3ccc4nnc(C(C)(C)N(C)C)n4c3)c3ccccc32)cc(C(C)(C)C)cc1NS(=O)(=O)CC(C)C` [Example 16, 2-Methyl-propane-1-sulfonic acid [5-tert-butyl-3-(3-{(1S,4R)-4-[3-(1-dimethylamino-1-methyl-ethyl)-[1,2,4]triazolo[4,3-a]pyridin-6-yloxy]-1,2,3,4-tetrahydro-naphthalen-1-yl}-ureido)-2-methoxy-phenyl]-amide hydrochloride salt], the pIC50 on p38alpha was 8.00 to 9.00 and > 9.00; in test [1] it was 8.30 to 9.00; with BEAS-2B cells, 9.00 to 9.52.
As to `COc1c(NC(C)=O)cc(C(C)(C)C)cc1NC(=O)N[C@H]1CC[C@@H](Oc2ccc3nnc(C(C)(C)N(C)C)n3c2)c2ccccc21` [Example 10, N-[5-tert-Butyl-3-(3-{(1S,4R)-4-[3-(1-dimethylamino-1-methyl-ethyl)-[1,2,4]triazolo[4,3-a]pyridin-6-yloxy]-1,2,3,4-tetrahydro-naphthalen-1-yl}-ureido)-2-methoxy-phenyl]-acetamide], the pIC50 is 8.00 to 9.00 at p38alpha, > 9.00 in test [1] and > 9.52 in the test with BEAS-2B cells.
For `COc1c(NC(C)=O)cc(C(C)(C)C)cc1NC(=O)N[C@H]1CC[C@@H](Oc2ccc3nnc([C@@H]4CCCN4C)n3c2)c2ccccc21` [Example 11, N-[5-tert-Butyl-2-methoxy-3-(3-{(1S,4R)-4-[3-((S)-1-methyl-pyrrolidin-2-yl)-[1,2,4]triazolo[4,3-a]pyridin-6-yloxy]-1,2,3,4-tetrahydro-naphthalen-1-yl}-ureido)-phenyl]-acetamide], the pIC50 on p38alpha is > 9.00; in test [1] it was > 9.00; in the test with BEAS-2B cells, < 9.00.
With `COc1c(CO)cc(C(C)(C)C)cc1NC(=O)N[C@H]1CC[C@@H](Oc2ccc3nnc([C@@H]4CCCCN4C)n3c2)c2ccccc21` [Example 5, 1-(5-tert-Butyl-3-hydroxymethyl-2-methoxy-phenyl)-3-{(1S,4R)-4-[3-((S)-1-methyl-piperidin-2-yl)-[1,2,4]triazolo[4,3-a]pyridin-6-yloxy]-1,2,3,4-tetrahydro-naphthalen-1-yl}-urea], the pIC50 on p38alpha was 8.00 to 9.00; in test [1], > 9.00; in the test with BEAS-2B cells, > 9.52.
Turning to `CN1CCC[C@H]1c1nnc2ccc(O[C@@H]3CC[C@H](NC(=O)Nc4cc(N5CCOCC5)cc(C(C)(C)C)c4)c4ccccc43)cn12` [Example 58, 1-(3-tert-Butyl-5-morpholin-4-yl-phenyl)-3-{(1S,4R)-4-[3-((S)-1-methyl-pyrrolidin-2-yl)-[1,2,4]triazolo[4,3-a]pyridin-6-yloxy]-1,2,3,4-tetrahydro-naphthalen-1-yl}-urea], the pIC50 on p38alpha was 8.00 to 9.00; in test [1] it was < 8.30; in the test on BEAS-2B cells, 9.00 to 9.52.
In the case of `C[C@H]1CCCCN1c1nnc2ccc(O[C@@H]3CC[C@H](NC(=O)Nc4cc(COCCN(C)C)cc(C(C)(C)C)c4)c4ccccc43)cn12` [Example 70, 1-[3-tert-Butyl-5-(2-dimethylamino-ethoxymethyl)-phenyl]-3-{(1S,4R)-4-[3-((S)-2-methyl-piperidin-1-yl)-[1,2,4]triazolo[4,3-a]pyridin-6-yloxy]-1,2,3,4-tetrahydro-naphthalen-1-yl}-urea], the pIC50 at p38alpha is > 9.00; in test [1], < 8.30; in the test on BEAS-2B cells, 9.00 to 9.52.
In the case of `CN1CCC[C@@]1(C)c1nnc2ccc(O[C@@H]3CC[C@H](NC(=O)Nc4cc(COCCN5CCCCC5)cc(C(C)(C)C)c4)c4ccccc43)cn12` [Example 71, 1-[3-tert-Butyl-5-(2-piperidin-1-yl-ethoxymethyl)-phenyl]-3-{(1S,4R)-4-[3-((S)-1,2-dimethyl-pyrrolidin-2-yl)-[1,2,4]triazolo[4,3-a]pyridin-6-yloxy]-1,2,3,4-tetrahydro-naphthalen-1-yl}-urea], the pIC50 at p38alpha was > 9.00; in test [1], 8.30 to 9.00; with BEAS-2B cells, 9.00 to 9.52.
